Legend:
[1] = test system: biofilm-forming microbe isolated from cooling water taken from a water cooling tower; assay: Biofilm inhibition test, quinone-based compound and chelating agent (OD570); type: cell-based; conditions: Experiment No. 19: Toluquinone 0 ppm, Citric acid 10 ppm; 0 ppm/0 ppm gave 0.329
Description: (§1) A biofilm-forming microbe (microbe showing a OD570 value of 0.3 or more in the test for determining the amount of biofilm (the following section 2-4)) isolated from cooling water taken from a water cooling tower was cultured in R2A culture medium at 30° C. for 16 hours while shaking. The turbidity (OD600) of the resultant culture solution was measured. The culture solution was diluted with R2A culture medium to prepare a suspension of 10^3 cfu/mL.
(§2) Predetermined amounts of p-toluquinone and HEDP were weighed and solvent (MDG) was added to prepare a composition. Since citric acid and EDTA were not dissolved in MDG, they were directly added in culture solutions; at the same time, p-toluquinone was directly added to the culture solutions.
The suspension of a test microbe prepared in the above section 2-1) was added in individual wells of a 96 well microplate in an amount of 150 μL, and then, the test solutions prepared in the above section 2-2) was each added and culture was initiated.
(§3) After the 96 well microplate was subjected to stationary culture performed at 30° C. for 48 hours, the culture solution was removed and the resultant microplate was washed with water. Subsequently, each well was stained with 0.1% crystal violet and 200 μL of ethanol was added. The absorbance (OD570) was measured to obtain the amount of biofilm (BF) formed.

[2] = Dissolution in solvent (MDG) when preparing compositions; type: physicochemical; conditions: preparation of compositions
Description: as §2

[3] = test system: Pseudomonas PAO1 strain (ATCC 15692); assay: Growth of test microbe (turbidity OD600), 96-well microplate culture; type: cell-based; conditions: Pseudomonas; for inhibition at 22 ppm: final concentration 22 ppm; for inhibition at 44 ppm: final concentration 44 ppm; for inhibition at 89 ppm: final concentration 89 ppm; for inhibition at 133 ppm: final concentration 133 ppm; for inhibition at 155 ppm: final concentration 155 ppm; for inhibition at 177 ppm: final concentration 177 ppm
Description: (§4) Pseudomonas PAO1 strain (ATCC 15692) was subjected to stationary culture performed in LB culture medium (Lysogeny Broth; manufactured by Becton Dickinson) at 37° C. for 24 hours. The turbidity (OD600) of the culture solution was measured. The culture solution was diluted with Mueller Hinton Broth (BBL made) to prepare a suspension (15 mL) having a turbidity (OD600) of 1/10^6.
To each of the wells of a 96-well microplate (351172; manufactured by Japan Becton Dickinson), 6 μL of DMSO (Tokyo Chemical Industry Co. Ltd) and an ethanol solution (1 μL, 3 μL or 5 μL) of a test compound were added. After that, the microplate was allowed to stand still at room temperature for 5 hours to evaporate ethanol. The suspension of Pseudomonas microbe prepared in the above step 1) was added in an amount of 145 μL per well and culture was initiated. As the test compound, 2-methylhydroquinone (Sigma Aldrich) and p-toluquinone (Tokyo Kasei) were used. As a reference compound, sodium hypochlorite (manufactured by Wako Pure Chemical Industries Ltd.) was used. As a control, an ethanol solvent (EtOH control) alone was used. The concentration of the test compound in the ethanol solution is 1,000 ppm or 10,000 ppm and the final concentration of the test compound in the culture solution was about from 7 to 333 ppm.
(§5) After the 96-well microplate was subjected to stationary culture performed at 30° C. for 24 hours, turbidity (OD600) was measured to check growth. Subsequently, individual wells were stained with 0.1% crystal violet and thoroughly washed twice with physiological saline. To each well, 200 μL of ethanol was added and the absorbance (OD570) was measured to obtain the amount of the biofilm formed.
Compounds listed in Table 3 were each added to a test microbe and culture was conducted by the same procedure as in Test Example 1 and the amount of growth (OD600) and the amount of biofilm formed (OD570) were measured. For compounds a, b, c, f, h, i, J and k, 20 mM ethanol solutions were prepared; whereas for compounds d, e, g, 5 mM ethanol solutions were prepared. The solutions were each added to a 96-well microplate in an amount of 1 to 8 μL and evaluation was made. The final concentrations of the individual compounds are described in Table 3.
(§6) Growth inhibition rates relative to the control (ethanol alone) were calculated based on OD600 values measured and in accordance with the following expression. In addition, biofilm (BF) formation inhibition rates relative to the control (ethanol alone) were calculated based on OD570 values and in accordance with the following expression:
Growth inhibition (%)=(1−(compound addition group OD600/control group OD600))×100
(§7) As a control, an ethanol solvent alone was used (EtOH control). The concentrations of test compounds in the ethanol solution were as follows: test compound 1: 20 mM, test compounds 2 to 7: 100 mM. To each of the wells of a 96-well microplate (351172; manufactured by Japan Becton Dickinson), 6 μL of DMSO (Tokyo Kasei) and an ethanol solution of each test compound (1 to 8 μL) were added and then the microplates were allowed to stand still at room temperature for 5 hours to evaporate ethanol. A suspension solution of a Pseudomonas microbe prepared in the same procedure as in Test Example 1, 1) was added in an amount of 145 μL per well and culture was initiated.
as §5, with “culture” for “culture performed”, “formed. The growth inhibition rate and biofilm (BF) formation inhibition rate were calculated based on OD600 and OD570 values measured and in accordance with the expressions used in Test Example 2.” for “formed.”

[4] = test system: Pseudomonas PAO1 strain (ATCC 15692); assay: Amount of biofilm formed (crystal violet, OD570), 96-well microplate culture; type: cell-based; conditions: Pseudomonas, read-out: BF inhibition (%); for inhibition at 22 ppm: final concentration 22 ppm; for inhibition at 44 ppm: final concentration 44 ppm; for inhibition at 89 ppm: final concentration 89 ppm; for inhibition at 133 ppm: final concentration 133 ppm; for inhibition at 155 ppm: final concentration 155 ppm; for inhibition at 177 ppm: final concentration 177 ppm
Description: as §4, with “1/10^6. […]” for “1/10^6.”
as §6
BF inhibition (%)={1−(compound addition group OD570/control group OD570)}×100
as §7
as §5, with “culture” for “culture performed”, “formed. The growth inhibition rate and biofilm (BF) formation inhibition rate were calculated based on OD600 and OD570 values measured and in accordance with the expressions used in Test Example 2.” for “formed.”

B. coli = conditions: to B. coli; Non Patent Literature 4; cited from earlier work
[5] = test system: cooling water taken from a water cooling tower; assay: Aqueous system model (annular reactor): amount of biofilm formed on test pieces (OD570); type: cell-based; conditions: Test Example 5; same procedure as Test Example 4; solvent control finally beyond 1.0
Description: (§8) Biofilm formation inhibitory activity of p-toluquinone (Tokyo Kasei) was evaluated by an aqueous system model using an annular reactor (Art Science Co., Ltd.) having a 100 mL-volume culture tank. In the culture tank of the annular reactor, a cylindrical rotating body rotating at a speed of 160 rounds per minute was installed. To the rotating body, 12 test pieces were attached in advance. These test pieces were taken out at predetermined time intervals and biofilm formed on the test pieces was quantified. From a water cooling tower provided on a building rooftop and actually used, cooling water was taken and supplied to the annular reactor culture vessel (maintained at 30° C.) at a flow rate of 10 mL per minute; at the same time, an ethanol solution (15 g/L) of p-toluquinone was separately supplied to the annular reactor culture vessel by a syringe pump YSP-201 (manufactured by YMC) at a flow rate of 10 μL per minute (p-toluquinone concentration in cooling water in the culture tank was 15 ppm). The test pieces (n=2) taken out from the culture tank at predetermined time intervals were stained with 0.1% crystal violet, thoroughly washed twice with physiological saline and recovered in ethanol (15 mL). The absorbance (OD570) was measured to obtain the amount of the biofilm formed. […] Thereafter, the number of bacteria cells was measured. […]

[6] = test system: cooling water taken from a water cooling tower; assay: Aqueous system model (annular reactor): number of bacterial cells in water at inlet and outlet (R2A agar); type: cell-based; conditions: Test Example 5; same procedure as Test Example 4; solvent control also about 10^4
Description: as §8

[7] = test system: biofilm-forming microbe isolated from cooling water taken from a water cooling tower; assay: Biofilm inhibition test, quinone-based compound and organic solvent (OD570); type: cell-based; conditions: for OD570: alone or added as test solution in Diacetone alcohol, no addition gave 2.15
Description: as §1, with “providing” for “showing”, “in the” for “(the”, “4-3)” for “2-4))”
The suspension of a test microbe prepared in the above section 4-1) was added in individual wells of a 96 well microplate in an amount of 150 μL. Thereafter, the test solution prepared in the above section 2) was add and culture was initiated.
as §3, with “The” for “After the”, “hours. The” for “hours, the”

Which results are given for `O=C(O)CC(O)(CC(=O)O)C(=O)O` [Citric acid]?
OD570 [1]: 0.261; dissolution in MDG (diethylene glycol monomethyl ether) [2]: not dissolved

Which results are given for `CC(C)(C)c1cc(O)ccc1O` [c, tert-Butylhydroquinone]?
inhibition at 22 ppm [3]: < 0%; inhibition at 44 ppm [3]: 5.3%; inhibition at 89 ppm [3]: 9.5%; inhibition at 133 ppm [3]: < 0%; inhibition at 155 ppm [3]: 11.8%; inhibition at 177 ppm [3]: 13.3%; inhibition at 22 ppm [4]: 34.8%; inhibition at 44 ppm [4]: 22.5%; inhibition at 89 ppm [4]: 32.5%; inhibition at 133 ppm [4]: 50%; inhibition at 155 ppm [4]: 69.3%; inhibition at 177 ppm [4]: 64.8%; minimum inhibitory concentration (MIC) (B. coli): 512 ppm

For `CCCCc1ccc(O)cc1O` [Compound 1, 4-Butylresorcinol], which inhibition at 22 ppm ([3]; Test Example 3) is on record?
Its inhibition at 22 ppm is less than 0%.

And the inhibition at 44 ppm ([3]; Test Example 3)?
Its inhibition at 44 ppm is less than 0%.

And the inhibition at 89 ppm ([3]; Test Example 3)?
The inhibition at 89 ppm was less than 0%.

And the inhibition at 133 ppm ([3]; Test Example 3)?
Its inhibition at 133 ppm is less than 0%.

What about the inhibition at 155 ppm ([3]; Test Example 3) of the same compound?
The inhibition at 155 ppm was 42.8%.

And the inhibition at 177 ppm ([3]; Test Example 3)?
Its inhibition at 177 ppm is 32.7%.

And the inhibition at 22 ppm ([4]; Test Example 3)?
Its inhibition at 22 ppm is 0.5%.

And the inhibition at 44 ppm ([4]; Test Example 3)?
The inhibition at 44 ppm was 18.3%.

What about the inhibition at 89 ppm ([4]; Test Example 3) of the same compound?
Its inhibition at 89 ppm is 4.5%.

What about the inhibition at 133 ppm ([4]; Test Example 3) of the same compound?
The inhibition at 133 ppm was 12.9%.

And the inhibition at 155 ppm ([4]; Test Example 3)?
The inhibition at 155 ppm was 54.9%.

What about the inhibition at 177 ppm ([4]; Test Example 3) of the same compound?
The inhibition at 177 ppm was 45.9%.

What about the “amount of the biofilm formed (OD570)” value [5] of the same compound?
The value was no more than 0.4.

And the “number of bacterial cells at the inlet or outlet of the reactor” value [6]?
Its value is “about 10^4 cells/mL”.

Which OD570 ([7]; 4-Hexylresorcinol 10 ppm) does the source give for `CCCCCCc1ccc(O)cc1O` [4-Hexylresorcinol] here?
Its OD570 is 1.49.

What about the OD570 ([7]; 4-Hexylresorcinol 20 ppm) of the same compound?
The OD570 was 0.10.

Which “decrease of BF formation inhibitory effect of the quinone-based compound by the organic solvent (in words)” value ([7]; from the results in Table 13, among the organic solvents tested) does the source give for `OCCOCCO` [diethylene glycol] here?
Its value is “lowest”.

For `O=C(O)CN(CCN(CC(=O)O)CC(=O)O)CC(=O)O` [EDTA, Ethylenediaminetetraacetic acid], which “dissolution in MDG (diethylene glycol monomethyl ether)” value [2] is on record?
The value was “not dissolved”.

Which inhibition at 5 ppm ([3]; final concentration 5 ppm) does the source give for `Cc1cc(O)c(C)c(C)c1O` [g, 2,3,5-Trimethylhydroquinone] here?
Its inhibition at 5 ppm is less than 0%.

And the inhibition at 10 ppm ([3]; final concentration 10 ppm)?
Its inhibition at 10 ppm is less than 0%.

And the inhibition at 20 ppm ([3]; final concentration 20 ppm)?
The inhibition at 20 ppm was 0.1%.

What about the inhibition at 30 ppm ([3]; final concentration 30 ppm) of the same compound?
Its inhibition at 30 ppm is 65.8%.

And the inhibition at 35 ppm ([3]; final concentration 35 ppm)?
The inhibition at 35 ppm was 67.5%.

And the inhibition at 41 ppm ([3]; final concentration 41 ppm)?
Its inhibition at 41 ppm is 68.5%.

And the inhibition at 5 ppm ([4]; final concentration 5 ppm)?
Its inhibition at 5 ppm is 45.5%.

What about the inhibition at 10 ppm ([4]; final concentration 10 ppm) of the same compound?
The inhibition at 10 ppm was 42.2%.

What about the inhibition at 20 ppm ([4]; final concentration 20 ppm) of the same compound?
Its inhibition at 20 ppm is 48%.

What about the inhibition at 30 ppm ([4]; final concentration 30 ppm) of the same compound?
Its inhibition at 30 ppm is 54.7%.

What about the inhibition at 35 ppm ([4]; final concentration 35 ppm) of the same compound?
Its inhibition at 35 ppm is 93.9%.

What about the inhibition at 41 ppm ([4]; final concentration 41 ppm) of the same compound?
Its inhibition at 41 ppm is 90.4%.

Source: patent US20190124918A1, “BIOFILM FORMATION INHIBITOR AND BIOFILM FORMATION INHIBITING COMPOSITION” (KAO CORPORATION, priority 2016, published 2019)
